Results: article PMC3722296 (PLoS ONE, 2013)
Converted amounts (≈) assume the structure as drawn.

How the values were obtained:
S. aureus ATCC49775 = format: cell-based, Staphylococcus aureus; settings: MIC = 100% growth inhibition; MHB pH 7.3, 5×10^5 CFU/mL, 24 h 37°C, A620 nm; mean of triplicate (n = 3)
Procedure: (§1) Different S. aureus strains described above were first pre-cultured aerobically at 37°C for 20 h in a Mueller-Hinton-Broth (MHB) medium, pH 7.3 (Difco Laboratories, Detroit, MI). Bacteria were suspended at absorbance of 0.001 at 620 nm in the MHB medium. […] Ten µl final volumes (10–200 µg/mL) of synthetic peptides (LL-37, bCAT, hCAT and bCTL) were incubated in microtitration plates with 90 µl of a mid-logarithmic phase culture of bacteria, with a starting absorbance of 0.001 at 620 nm. In the initial inoculi, bacteria were quantified by the agar plate spreading method which was 5×10^5 colony forming units (CFU)/mL. Tetracycline (10 mg/L) and Cefotaxime (0.1 mg/L) were used as positive controls. Microbial growth was assessed by the increase of absorbance after 24 h incubation at 37°C., [29] The A620 nm value of control cultures growing in the absence of peptide and antibiotics was defined as 100% growth. A620 nm zero with the antibiotics (Tetracycline and Cefotaxime) was taken as 100% inhibition. Absence of bacterial growth was verified by agar plate spreading. Each assay was performed in triplicates.
(§2) The MIC values (µg/mL) are reported as means of three independent experiments. To determine significance, between different peptides (rows) and bacterial strains (columns), one way ANOVA was used. Overall significance and correlation was evaluated by 4×4 factorial ANOVA for independent samples. Significance was accepted at p≤0.05.

S. aureus ATCC25923 = format: cell-based, Staphylococcus aureus; settings: MIC = 100% growth inhibition; MHB pH 7.3, 5×10^5 CFU/mL, 24 h 37°C, A620 nm; mean of triplicate (n = 3)
Procedure: as §1, §2

[1] = system: S. aureus metallo-protease aureolysin; settings: cited from earlier work
Description: Staphylococcus aureus is the most frequently isolated pathogen in Gram-positive sepsis, often involved in blood clotting disorders and destruction of endocardial tissue. S. aureus has developed several mechanisms to avoid immune response including resistance to AMPs, [13] impairment of phagocyte recruitment, [14] escape from neutrophil extracellular traps, [15] interference with complement, [16] neutrophil lysis, resistance to oxidative burst and non-specific binding and degradation of immunoglobulins. The AMPs evasion mechanisms deployed by S. aureus include prote ...

S. aureus S2 (MSSA) = format: cell-based, Staphylococcus aureus; settings: MIC = 100% growth inhibition; MHB pH 7.3, 5×10^5 CFU/mL, 24 h 37°C, A620 nm; mean of triplicate (n = 3)
Procedure: (§3) S1 was isolated from the blood of a patient and S2 was isolated from the sputum of a neonate. After isolation and identification, S. aureus strains were assessed for their susceptibility to various antibiotics, using the agar disc diffusion method. S1 was found Methicillin resistant (MRSA) and is also resistant to Amoxicillin, Oxacillin, Amikacin, Tobramycin, Fluoroquinolones, Erythromycin and Clindamycin. However, it was susceptible to Gentamicin, Synercid, Co-trimoxazole, Rifampicin, Fusidic acid, Vancomycin, Teicoplanin and Linezolid.
as §1, §2

S. aureus S1 (MRSA) = format: cell-based, Staphylococcus aureus; settings: MIC = 100% growth inhibition; MHB pH 7.3, 5×10^5 CFU/mL, 24 h 37°C, A620 nm; mean of triplicate (n = 3)
Procedure: as §3, §1, §2

CC[C@H](C)[C@H](NC(=O)[C@H](CCCCN)NC(=O)[C@H](CCC(=O)O)NC(=O)[C@H](CCCCN)NC(=O)[C@H](CO)NC(=O)[C@H](CCCCN)NC(=O)[C@H](CCCNC(=N)N)NC(=O)[C@H](Cc1ccccc1)NC(=O)[C@H](Cc1ccccc1)NC(=O)[C@H](CC(=O)O)NC(=O)CNC(=O)[C@H](CC(C)C)NC(=O)[C@@H](N)CC(C)C)C(=O)NCC(=O)N[C@@H](CCCCN)C(=O)N[C@@H](CCC(=O)O)C(=O)N[C@@H](Cc1ccccc1)C(=O)N[C@@H](CCCCN)C(=O)N[C@@H](CCCNC(=N)N)C(=O)N[C@H](C(=O)N[C@H](C(=O)N[C@@H](CCC(N)=O)C(=O)N[C@@H](CCCNC(=N)N)C(=O)N[C@H](C(=O)N[C@@H](CCCCN)C(=O)N[C@@H](CC(=O)O)C(=O)N[C@@H](Cc1ccccc1)C(=O)N[C@@H](CC(C)C)C(=O)N[C@@H](CCCNC(=N)N)C(=O)N[C@@H](CC(N)=O)C(=O)N[C@@H](CC(C)C)C(=O)N[C@H](C(=O)N1CCC[C@H]1C(=O)N[C@@H](CCCNC(=N)N)C(=O)N[C@H](C(=O)N[C@@H](CCC(=O)O)C(=O)N[C@@H](CO)C(=O)O)[C@@H](C)O)C(C)C)[C@@H](C)CC)C(C)C)[C@@H](C)CC [LL-37, reference compound]
MIC (S. aureus ATCC49775): 30 µg/mL (≈ 6.68 µM) | MIC (S. aureus ATCC25923): 30 µg/mL (≈ 6.68 µM) | cleavage by aureolysin [1]: cleave and inactivate | MIC (S. aureus S2 (MSSA)): 35 µg/mL (≈ 7.79 µM) | MIC (S. aureus S1 (MRSA)): 30 µg/mL (≈ 6.68 µM)
